Experimental data as given in patent US11000033B2, “Ketone or oxime compound, and herbicide” (NISSAN CHEMICAL CORPORATION, priority 2014, dated 2021).

Key:
Format in all cases: in vivo
[1] = system: Galium spurium; test: Test Example 5: herbicidal effect by foliage application, plastic box (symbol Q); details: 320 g/ha, 3 weeks after application
Summary of the method: (§1)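 Post-emergence spray; diluvial soil (sterilized), ~1.5 cm seed cover; greenhouse 25–30° C; 14-day-old plants; water-diluted emulsion at predetermined dose; visual score at 3 wk post-treatment.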

[2] = system: Galium spurium; test: Test Example 4: herbicidal effect by soil treatment (symbol Q)
Summary of the method: (§2)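 Seeds were sown in sterilized diluvial soil, covered with about 1.5 cm of soil, and the soil surface was sprayed with a water-diluted emulsion of the compound at a predetermined rate. Plants grew in a greenhouse at 25° C. to 30° C.; effects were scored visually 3 weeks after application.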

[3] = system: Cyperus difformis; test: Test Example 3: herbicidal effect by foliage application, Wagner pot (symbol E); details: application herbicide amount 320 g/ha
Summary of the method: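 Steps: fill pot with alluvial soil; add water to 0.1–0.5 cm depth; sow weed and rice seed; grow 14 days at 25–30 °C; spray diluted emulsion over the leaves; rate effect after 3 weeks.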

[4] = system: Scirpus juncoides; test: Test Example 1: herbicidal activity, application before weed generation in submerged conditions (symbol B); details: application herbicide amount 320 g/ha
Summary of the method: (§3)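 Greenhouse growth at 25–30 °C lasted 3 weeks after treatment, when each weed was graded 0–5 by herbicidal ratio. Treatment was a diluted emulsion applied to the water surface of 4 cm-submerged alluvial soil on the sowing day.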

[5] = system: Echinochloa oryzacola Vasing.; test: Test Example 1: herbicidal activity, application before weed generation in submerged conditions (symbol A); details: application herbicide amount 320 g/ha
Summary of the method: as §3

[6] = system: Alopecurus myosuroides; test: Test Example 5: herbicidal effect by foliage application, plastic box (symbol J); details: 320 g/ha, 3 weeks after application
Summary of the method: as §1

[7] = system: Setaria viridis; test: Test Example 5: herbicidal effect by foliage application, plastic box (symbol G); details: 320 g/ha, 3 weeks after application
Summary of the method: as §1

[8] = system: soybean; test: Test Example 4: effect on crop by soil treatment (symbol d); details: for d: soybean, effect on crop grade: application herbicide amount 320 g/ha; for d: soybean, effect grade on crop: 320 g/ha
Summary of the method: (§4)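 Sterilized diluvial soil, spot sowing, ~1.5 cm soil cover; greenhouse 25–30° C.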

[9] = system: transplanted rice plant; test: Test Example 1: effect on crop, application before weed generation in submerged conditions (symbol a); details: application herbicide amount 320 g/ha
Summary of the method: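 Rice at 2.5 leaf stage transplanted into submerged soil (4 cm depth) sown with three weed species; herbicide applied before weed emergence.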

[10] = system: Lolium multiflorum Lam.; test: Test Example 5: herbicidal effect by foliage application, plastic box (symbol K); details: 320 g/ha, 3 weeks after application
Summary of the method: as §1

[11] = system: corn; test: Test Example 4: effect on crop by soil treatment (symbol c); details: for c: corn, effect on crop grade: application herbicide amount 320 g/ha; for c: corn, effect grade on crop: 320 g/ha
Summary of the method: as §4

[12] = system: rice; test: Test Example 4: effect on crop by soil treatment (symbol b); details: for b: directly sowed rice plant, effect on crop grade: application herbicide amount 320 g/ha; for b: directly sowed rice plant, effect grade on crop: 320 g/ha
Summary of the method: as §4

[13] = system: Stellaria media; test: Test Example 4: herbicidal effect by soil treatment (symbol P)
Summary of the method: as §2

[14] = system: wheat; test: Test Example 4: effect on crop by soil treatment (symbol e); details: for e: wheat, effect on crop grade: application herbicide amount 320 g/ha; for e: wheat, effect grade on crop: 320 g/ha
Summary of the method: as §4

[15] = system: Alopecurus myosuroides; test: Test Example 4: herbicidal effect by soil treatment (symbol J)
Summary of the method: as §2

[16] = application herbicide amount 320 g/ha

SMILES | Q: Galium spurium, herbicidal effect grade [1] | Q: Galium spurium, herbicidal effect grade [2, 16] | herbicidal effect on E, grade 0-5 [3] | Herbicidal effect grade, B: Scirpus juncoides [4] | Herbicidal effect grade, A: Echinochloa oryzacola Vasing. [5] | J: Alopecurus myosuroides, herbicidal effect grade [6] | G: Setaria viridis, herbicidal effect grade [7] | d: soybean, effect on crop grade [8] | Effect grade on crop, a: transplanted rice plant [9] | K: Lolium multiflorum Lam., herbicidal effect grade [10] | c: corn, effect on crop grade [11] | b: directly sowed rice plant, effect on crop grade [12] | e: wheat, effect on crop grade [14] | Q: Galium spurium, herbicidal effect (criteria 0-5) [1] | Q: Galium spurium, herbicidal effect grade ([2]; 320 g/ha) | J: Alopecurus myosuroides, herbicidal effect (criteria 0-5) [6] | J: Alopecurus myosuroides, herbicidal effect grade ([15]; 320 g/ha) | G: Setaria viridis, herbicidal effect (criteria 0-5) [7] | d: soybean, effect grade on crop [8] | K: Lolium multiflorum Lam., herbicidal effect (criteria 0-5) [10] | further results
CON=C(C)CC1CC(O)=C(c2c(C)cc(-c3ccc(OC)cc3)cc2C)C1=O (mixture of isomers) [6-017] | 0 (Herbicidal ratio of 5% or lower (almost no effect)) | 0 (Herbicidal ratio of 5% or lower (almost no effect)) | 4 (Herbicidal ratio of 70% or higher and lower than 90%) | 1 (Herbicidal ratio of 5% or higher and lower than 20%) | 5 (Herbicidal ratio of 90% or more (almost completely withered)) | 5 (Herbicidal ratio of 90% or more (almost completely withered)) | 5 (Herbicidal ratio of 90% or more (almost completely withered)) | 0 (Herbicidal ratio of 5% or lower (almost no effect)) | 5 (Herbicidal ratio of 90% or more (almost completely withered)) | 5 (Herbicidal ratio of 90% or more (almost completely withered)) | 0 (Herbicidal ratio of 5% or lower (almost no effect)) | 3 (Herbicidal ratio of 40% or higher and lower than 70%) | 0 (Herbicidal ratio of 5% or lower (almost no effect)) |  |  |  |  |  |  |  | P: Stellaria media, herbicidal effect grade [13, 16]: 0 (Herbicidal ratio of 5% or lower (almost no effect))
CON=C(C)CC1CC(OS(=O)(=O)CCCCl)=C(c2c(C)cc(C)cc2C)C1=O (stereo not shown) [1-142] |  |  |  | 5 (Herbicidal ratio of 90% or more (almost completely withered)) | 5 (Herbicidal ratio of 90% or more (almost completely withered)) |  |  |  | 5 (Herbicidal ratio of 90% or more (almost completely withered)) |  |  |  |  | 3 (Herbicidal ratio of 40% or higher and lower than 70%) | 0 (Herbicidal ratio of 5% or lower (almost no effect)) | 5 (Herbicidal ratio of 90% or more (almost completely withered)) | 5 (Herbicidal ratio of 90% or more (almost completely withered)) | 5 (Herbicidal ratio of 90% or more (almost completely withered)) | 0 (Herbicidal ratio of 5% or lower (almost no effect)) | 5 (Herbicidal ratio of 90% or more (almost completely withered)) | c: corn, effect grade on crop [11]: 0 (Herbicidal ratio of 5% or lower (almost no effect)); b: directly sowed rice plant, effect grade on crop [12]: 5 (Herbicidal ratio of 90% or more (almost completely withered)); P: Stellaria media, herbicidal effect grade ([13]; 320 g/ha): 0 (Herbicidal ratio of 5% or lower (almost no effect)); e: wheat, effect grade on crop [14]: 3 (Herbicidal ratio of 40% or higher and lower than 70%)
CON=C(C)CC1CC(OS(=O)(=O)C2CC2)=C(c2c(C)cc(C)cc2C)C1=O (stereo not shown) [1-143] |  |  |  | 4 (Herbicidal ratio of 70% or higher and lower than 90%) | 4 (Herbicidal ratio of 70% or higher and lower than 90%) |  |  |  | 5 (Herbicidal ratio of 90% or more (almost completely withered)) |  |  |  |  | 0 (Herbicidal ratio of 5% or lower (almost no effect)) | 0 (Herbicidal ratio of 5% or lower (almost no effect)) | 5 (Herbicidal ratio of 90% or more (almost completely withered)) | 2 (Herbicidal ratio of 20% or higher and lower than 40%) | 5 (Herbicidal ratio of 90% or more (almost completely withered)) | 0 (Herbicidal ratio of 5% or lower (almost no effect)) | 5 (Herbicidal ratio of 90% or more (almost completely withered)) | c: corn, effect grade on crop [11]: 0 (Herbicidal ratio of 5% or lower (almost no effect)); b: directly sowed rice plant, effect grade on crop [12]: 0 (Herbicidal ratio of 5% or lower (almost no effect)); P: Stellaria media, herbicidal effect grade ([13]; 320 g/ha): 0 (Herbicidal ratio of 5% or lower (almost no effect)); e: wheat, effect grade on crop [14]: 2 (Herbicidal ratio of 20% or higher and lower than 40%)
Cc1cc(C)c(C2=C(O)CC(CC(=O)CC3CC3)C2=O)c(C)c1 (stereo not shown) [2-026] | 0 (Herbicidal ratio of 5% or lower (almost no effect)) | 0 (Herbicidal ratio of 5% or lower (almost no effect)) | 5 (Herbicidal ratio of 90% or more (almost completely withered)) | 3 (Herbicidal ratio of 40% or higher and lower than 70%) | 3 (Herbicidal ratio of 40% or higher and lower than 70%) | 4 (Herbicidal ratio of 70% or higher and lower than 90%) | 5 (Herbicidal ratio of 90% or more (almost completely withered)) | 0 (Herbicidal ratio of 5% or lower (almost no effect)) | 4 (Herbicidal ratio of 70% or higher and lower than 90%) | 5 (Herbicidal ratio of 90% or more (almost completely withered)) | 1 (Herbicidal ratio of 5% or higher and lower than 20%) | 5 (Herbicidal ratio of 90% or more (almost completely withered)) | 0 (Herbicidal ratio of 5% or lower (almost no effect)) |  |  |  |  |  |  |  | J: Alopecurus myosuroides, herbicidal effect grade [15, 16]: 3 (Herbicidal ratio of 40% or higher and lower than 70%)
CCC(=O)CCC1CC(O)=C(c2c(C)cc(C)cc2C)C1=O (stereo not shown) [5-001] | 0 (Herbicidal ratio of 5% or lower (almost no effect)) | 0 (Herbicidal ratio of 5% or lower (almost no effect)) | 0 (Herbicidal ratio of 5% or lower (almost no effect)) | 0 (Herbicidal ratio of 5% or lower (almost no effect)) | 0 (Herbicidal ratio of 5% or lower (almost no effect)) | 5 (Herbicidal ratio of 90% or more (almost completely withered)) | 3 (Herbicidal ratio of 40% or higher and lower than 70%) | 0 (Herbicidal ratio of 5% or lower (almost no effect)) | 0 (Herbicidal ratio of 5% or lower (almost no effect)) | 5 (Herbicidal ratio of 90% or more (almost completely withered)) | 0 (Herbicidal ratio of 5% or lower (almost no effect)) | 5 (Herbicidal ratio of 90% or more (almost completely withered)) | 0 (Herbicidal ratio of 5% or lower (almost no effect)) |  |  |  |  |  |  |  | J: Alopecurus myosuroides, herbicidal effect grade [15, 16]: 2 (Herbicidal ratio of 20% or higher and lower than 40%)
